Assays:
Assay type in all cases: physicochemical
[1] = Fluorescence characteristics (excitation and emission maxima) before and after addition of zinc ions
Experimental: Fluorescence characteristics of Compound (11) were studied. Compound (11) was dissolved in 100 mM HEPES buffer (pH 7.4, containing 0.4% DMSO as co-solvent) up to 20 μM and measured excitation spectra.
Hitachi F-4500 fluorescence measurement apparatus
Scanning rate: 240 nm/min
Photomultiplier voltage: 950 V
Measurement temperature: 25° C.
(§1) Studies of fluorescence characteristics and the ratio measurements of Compound (14) and (15) were conducted in the same manners as those described in Example 2 and Example 3. Fluorescent characteristics of Compound (14) and (15) before and after addition of zinc ions (20 μM ZnSO4) are shown in the following Table 2.

[2] = Ratio measurement of fluorescence intensities at two excitation wavelengths on addition of zinc ions; conditions: excitation 335 nm and 354 nm, fluorescence 530 nm; 20 μM compound, ZnSO4 up to 20 μM, HEPES pH 7.4
Experimental: (§2) To a 20 μM solution of Compound (11) in 100 mM HEPES buffer (pH 7.4), ZnSO4 was added up to 20 μM. Change of the ratio of fluorescence intensities at excitation wavelengths at 335 nm and 354 nm with the fluorescence wavelengths fixed at 530 nm are shown (FIG. 2 (A)). To a 20 μM solution of Compound (11) in 100 mM HEPES buffer (pH 7.4), sodium ions, calcium ions, potassium ions, or magnesium ions were added up to 400 μM. Changes of the ratio of fluorescence intensities at excitation wavelengths at 335 nm and 354 nm with the fluorescence wavelengths fixed at 530 nm are shown (FIG. 2 (B)).
as §1

[3] = Ratio measurement on addition of ions other than zinc ion (selectivity)
Experimental: as §2, §1

[4] = Spectrum measurement (UV, excitation and fluorescence spectra) on addition of ZnSO4
Experimental: To a 15 μM solution of Compound (14) in 100 mM HEPES buffer (pH 7.4), ZnSO4 was added up to 15 μM. Spectra of the solution were measured under the measurement condition described in Example 2. The same spectral measurement was also conducted for Compound (11) as a reference. In FIG. 3, a) UV spectrum change of Compound (14), b) excitation spectra of Compound (14) with fluorescence wavelengths fixed at 495 nm, c) UV spectrum change of Compound (11), and d) excitation spectra of Compound (11) with fluorescence wavelengths fixed at 530 nm are shown. Further, to a 10 μM solution of Compound (15) in 100 mM HEPES buffer (pH 7.4), ZnSO4 was added up to 200 μM. Spectra were measured under the condition described in Example 2.

[5] = 20 μM compound, 20 μM ZnSO4, 100 mM HEPES buffer pH 7.4, 25° C.
[6] = 20 μM compound, 100 mM HEPES buffer pH 7.4, 0.4% DMSO, 25° C.

With `COc1cc2cc(-c3ccc(C(=O)O)cc3)oc2cc1NCCN(Cc1ccccn1)Cc1ccccn1` [Compound (11)] the “Em(nm), after addition of Zn2+” value [1, 5] was 528 nm, the “Ex(nm), after addition of Zn2+” value [1, 5] was 335 nm and the “Em(nm), before addition of Zn2+” value [1, 6] was 532 nm. For the same compound, the “Ex(nm), before addition of Zn2+” value [1, 6] was 354 nm, the “Wavelength shift of the peak of the excitation spectrum on coordination to a zinc ion” value ([1]; blue shift, depending on concentration of zinc ions) was “about 20 nm” and the “Change of the ratio of fluorescence intensities on addition of zinc ions” value [2] was “changed concentration dependent manner of zinc ions”. The “Change of the ratio of fluorescence intensities on addition of sodium, calcium, potassium or magnesium ions” value ([3]; ions added up to 400 μM, 20 μM compound, 100 mM HEPES pH 7.4) was “no change of the ratio was observed”, the “Selectivity to zinc ions” value ([3]; versus sodium, calcium, potassium, magnesium ions) was “high selectivity to zinc ions” and the “Change of absorbance at 335 nm on addition of zinc ions” value ([4]; 15 μM compound, ZnSO4 up to 15 μM, HEPES pH 7.4) was “increases”. The “Change of absorbance at the long-wavelength maximum on addition of zinc ions” value ([4]; 365 nm for Compound (14), 354 nm for Compound (11), 15 μM compound, ZnSO4 up to 15 μM) was “decreases” and the “Change of fluorescence excited at the long-wavelength maximum on addition of zinc ions” value ([4]; excited at 365 nm (Compound (14), emission 495 nm) or 354 nm (Compound (11), emission 530 nm)) was “decreases”.

— patent publication US20080261314A1, “FLUORESCENT PROBE FOR ZINC” (DAIICHI PURE CHEMICALS CO., LTD., priority 2001, published 2008)
